Measured values: patent publication US10413575B2, “Pharmaceutical composition for preventing or treating inflammatory diseases, containing Lactococcus chungangensis as active ingredient” (CHUNG-ANG UNIVERSITY INDUSTRY-ACADEMIC COOPERATION …, priority 2015, dated 2019)

Columns and labels:
[1] = test system: IL-4, IL-5, IL-12, IFN-γ, TNF-α, and TARC; assay: Chemokine and cytokine mRNA expression in skin tissues (reverse transcription PCR); assay type: in vivo, BALB/c mice and NC/Nga mice; settings: skin application
Procedure: After the ending of the treatment of the BALB/c and NC/Nga mice with test materials, the BALB/c and NC/Nga mice of the DNCB-induced atopic control group, the Tacrolimus skin application group, the Lactococcus chungangensis skin application group, and the Lactococcus chungangensis oral administration group were sacrificed. The skin tissues were extracted, and Trizol was added thereto, and the skin tissues were homogenized using a homogenizer until dissolved, and RNA was extracted from the homogenized tissues. Specifically, Trizol was added to the skin tissues extracted from BALB/c mice and NC/Nga mice of each of the control and test groups, and chloroform (CHCl3) was added thereto and mixed. Then, the mixture was allowed to stand for 10 minutes and centrifuged. The centrifuged supernatant was recovered, mixed with the same amount of 2-propanol, allowed to stand for 10 minutes, centrifuged again, washed with 80% EtOH, and dried, to thereby obtain RNA. cDNA was obtained by reverse transcription PCR using AMV reverse transcriptase, dNTP (Promega, Madison, Wis.), EX Taq DNA polymerase (Takara Shuzou, Kyoto, Japan), and the obtained cDNA was used to investigate the mRNA expression levels of atopic-related chemokines and cytokines. Specifically, PCR was performed using the primer pairs described in Table 5 below for chemokines and cytokines IL-4, IL-5, IL-12, IFN-γ, TNF-α, and TARC and control GAPDH, respectively. The PCR was performed for 30 cycles of 1 minute at 94° C., 30 seconds at 95° C., 30 seconds at 55-65° C., and 3 minutes at 70° C.

[2] = test system: DNCB-induced atopic NC/Nga mice; assay: Visual evaluation of DNCB-induced atopic NC/Nga mice; assay type: in vivo; parameters: key to dryness/scarring / edema / erosion/excoriation / erythema/hemorrhage: 0=absence; 1=mild; 2=moderate; 3=severe; key to Total severity score / Mean severity score: sum of 4 signs each 0=absence to 3=severe; settings: skin application
Source text: (§1) Mice were divided into a total of five groups, a non-treatment (normal) group, a DNCB group, a Tacrolimus skin application group, a Lactococcus chungangensis skin application group, and a Lactococcus chungangensis oral administration group. Then, 0.1 g of hair removal cream was applied on the back and neck of BALB/c and NC/Nga mice, respectively, and hairs were removed using soft tissue paper to avoid wounds. After the mice were left for 5 days to heal minor wounds, 1% DNCB 200 (acetone:olive oil=3:1) was applied to the back and ears three times a week for two weeks to induce atopy. After atopy induction, Lactococcus chungangensis was applied to diseased parts at 10^9 cell/mouse twice a week for four weeks, while Lactococcus chungangensis was administered to oral cavity at 10^9 cell/mouse twice a week for four weeks. For efficacy comparison, Tacrolimus in use as an atopy medicine was used. Tacrolimus was applied to atopy diseased parts at 100 mg/kg twice a week for four weeks. Visual evaluation was conducted to determine a treatment effect in each of a Tacrolimus skin application group, a Lactococcus chungangensis skin application group, and a Lactococcus chungangensis oral administration group. Visual evaluation was conducted by evaluating the skin condition in four stages (0=absence, 1=mild, 2=moderate, 3=severe) according to the severity of erythema/hemorrhage, dryness/scarring, edema, and erosion/excoriation as evaluation indexes. A severity score of about 12 point or more was determined that the atopy symptoms reach the highest peak. The results are shown in Tables 1 to 5 for BALB/c mice, and Tables 6 to 10 for NC/Nga mice.

IgE [3] = assay: Immunoglobulin IgE measurement in serum (ELISA), BALB/c mice; assay type: in vivo; settings: skin application, compared with the DNCB-induced group
Procedure: (§2) After the ending of the treatment with test materials, BALB/c and NC/Nga mice of the five groups were sacrificed, and blood was collected from the heart. Serum was isolated from the blood to measure IgE. […] Absorbance was measured at 450 nm using a microplate reader to determine IgE protein level.

[4] = test system: DNCB-induced atopic BALB/c mice; assay: Visual evaluation of DNCB-induced atopic BALB/c mice; assay type: in vivo; parameters: key to dryness/scarring / edema / erosion/excoriation / erythema/hemorrhage: 0=absence; 1=mild; 2=moderate; 3=severe; key to Total severity score / Mean severity score: sum of 4 signs each 0=absence to 3=severe; settings: skin application
Source text: as §1

[5] = test system: IL-4, IL-5, IL-12, IFN-γ, TNF-α, and TARC; assay: Chemokine and cytokine protein levels in serum (ELISA); assay type: in vivo; settings: BALB/c and NC/Nga, skin application, vs DNCB-induced atopy mice
Source text: Mice were divided into a total of five groups, a non-treatment (normal) group, a DNCB group, a Tacrolimus skin application group, a Lactococcus chungangensis skin application group, and a Lactococcus chungangensis oral administration group. Then, 0.1 g of hair removal cream was applied on the back and neck of BALB/c and NC/Nga mice, respectively, and hairs were removed using soft tissue paper to avoid wounds. After the mice were left for 5 days to heal minor wounds, 1% DNCB 200 (acetone:olive oil=3:1) was applied to the back and ears three times a week for two weeks to induce atopy. After atopy induction, Lactococcus chungangensis was applied to diseased parts at 10^9 cell/mouse twice a week for four weeks, while Lactococcus chungangensis was administered to oral cavity at 10^9 cell/mouse twice a week for four weeks. […] Tacrolimus was applied to atopy diseased parts at 100 mg/kg twice a week for four weeks.
In addition, the protein level changes of IL-4, IL-5, IL-12, IFN-γ, TNF-α, and TARC in the serum isolated from the blood taken from the heart of each of BALB/c mice and NC/Nga mice were measured using IL-4 Quantikine Immunoassay Kit, IL-5 Quantikine Immunoassay Kit, IL-12 Quantikine Immunoassay Kit, TNF-α Quantikine Immunoassay Kit, CCL17/TARC Quantikine Immunoassay Kit (R&D Systems, Minneapolis, Minn., USA), respectively, and the absorbance was determined at 450 nm by using a microplate reader.

[6] = test system: DNCB-induced atopic BALB/c mice and NC/Nga mice; assay: Histopathological test (H&E) of dorsal skin tissue and ears; assay type: in vivo; settings: skin application, vs DNCB-induced atopic mice
Source text: Mice were divided into a total of five groups, a non-treatment (normal) group, a DNCB group, a Tacrolimus skin application group, a Lactococcus chungangensis skin application group, and a Lactococcus chungangensis oral administration group. Then, 0.1 g of hair removal cream was applied on the back and neck of BALB/c and NC/Nga mice, respectively, and hairs were removed using soft tissue paper to avoid wounds. After the mice were left for 5 days to heal minor wounds, 1% DNCB 200 (acetone:olive oil=3:1) was applied to the back and ears three times a week for two weeks to induce atopy. After atopy induction, Lactococcus chungangensis was applied to diseased parts at 10^9 cell/mouse twice a week for four weeks, while Lactococcus chungangensis was administered to oral cavity at 10^9 cell/mouse twice a week for four weeks. For efficacy comparison, Tacrolimus in use as an atopy medicine was used. Tacrolimus was applied to atopy diseased parts at 100 mg/kg twice a week for four weeks.
After the treatment of test materials, the dorsal skin tissue (1.5×1.5 cm) and ears of BALB/c mice and NC/Nga mice of the test and control groups were taken off, and fixed in 10% paraformaldehyde for 24 hours. The tissues were sufficiently hardened in paraffin, and sliced into five pieces to prepare slide glasses. […]

IgE [7] = assay: Immunoglobulin IgE measurement in serum (ELISA), NC/Nga mice; assay type: in vivo; settings: skin application
Procedure: as §2

C=CC[C@@H]1/C=C(\C)C[C@H](C)C[C@H](OC)[C@H]2O[C@@](O)(C(=O)C(=O)N3CCCC[C@H]3C(=O)O[C@H](/C(C)=C/[C@@H]3CC[C@@H](O)[C@H](OC)C3)[C@H](C)[C@@H](O)CC1=O)[C@H](C)C[C@@H]2OC [Tacrolimus]
mRNA expression level of IFN-γ [1]: reduced | mRNA expression level of IL-4 [1]: reduced | mRNA expression level of IL-5 [1]: reduced | mRNA expression level of IL-12 [1]: reduced | mRNA expression level of TARC [1]: reduced | mRNA expression level of TNF-α [1]: reduced | Mean severity score ([2]; 1 Week): 5.5 | Total severity score ([2]; 1 Week, evaluation 1): 5 | dryness/scarring ([2]; 1 Week, evaluation 1): 2 | edema ([2]; 1 Week, evaluation 1): 1 | erosion/excoriation ([2]; 1 Week, evaluation 1): 1 | erythema/hemorrhage ([2]; 1 Week, evaluation 1): 1 | Total severity score ([2]; 1 Week, evaluation 2): 6 | dryness/scarring ([2]; 1 Week, evaluation 2): 2 | edema ([2]; 1 Week, evaluation 2): 1 | erosion/excoriation ([2]; 1 Week, evaluation 2): 2 | erythema/hemorrhage ([2]; 1 Week, evaluation 2): 1 | Mean severity score ([2]; 2 Weeks): 10.5 | Total severity score ([2]; 2 Weeks, evaluation 3): 11 | dryness/scarring ([2]; 2 Weeks, evaluation 3): 3 | edema ([2]; 2 Weeks, evaluation 3): 3 | erosion/excoriation ([2]; 2 Weeks, evaluation 3): 2 | erythema/hemorrhage ([2]; 2 Weeks, evaluation 3): 3 | Total severity score ([2]; 2 Weeks, evaluation 4): 10 | dryness/scarring ([2]; 2 Weeks, evaluation 4): 3 | edema ([2]; 2 Weeks, evaluation 4): 2 | erosion/excoriation ([2]; 2 Weeks, evaluation 4): 2 | erythema/hemorrhage ([2]; 2 Weeks, evaluation 4): 3 | Mean severity score ([2]; 3 Weeks): 11.5 | Total severity score ([2]; 3 Weeks, evaluation 5): 12 | dryness/scarring ([2]; 3 Weeks, evaluation 5): 3 | edema ([2]; 3 Weeks, evaluation 5): 3 | erosion/excoriation ([2]; 3 Weeks, evaluation 5): 3 | erythema/hemorrhage ([2]; 3 Weeks, evaluation 5): 3 | Total severity score ([2]; 3 Weeks, evaluation 6): 11 | dryness/scarring ([2]; 3 Weeks, evaluation 6): 3 | edema ([2]; 3 Weeks, evaluation 6): 2 | erosion/excoriation ([2]; 3 Weeks, evaluation 6): 3 | erythema/hemorrhage ([2]; 3 Weeks, evaluation 6): 3 | Mean severity score ([2]; 4 Weeks): 11.5 | Total severity score ([2]; 4 Weeks, evaluation 7): 12 | dryness/scarring ([2]; 4 Weeks, evaluation 7): 3 | edema ([2]; 4 Weeks, evaluation 7): 3 | erosion/excoriation ([2]; 4 Weeks, evaluation 7): 3 | erythema/hemorrhage ([2]; 4 Weeks, evaluation 7): 3 | Total severity score ([2]; 4 Weeks, evaluation 8): 11 | dryness/scarring ([2]; 4 Weeks, evaluation 8): 3 | edema ([2]; 4 Weeks, evaluation 8): 3 | erosion/excoriation ([2]; 4 Weeks, evaluation 8): 2 | erythema/hemorrhage ([2]; 4 Weeks, evaluation 8): 3 | Mean severity score ([2]; 5 Weeks): 11 | Total severity score ([2]; 5 Weeks, evaluation 9): 11 | dryness/scarring ([2]; 5 Weeks, evaluation 9): 3 | edema ([2]; 5 Weeks, evaluation 9): 2 | erosion/excoriation ([2]; 5 Weeks, evaluation 9): 3 | erythema/hemorrhage ([2]; 5 Weeks, evaluation 9): 3 | Total severity score ([2]; 5 Weeks, evaluation 10): 11 | dryness/scarring ([2]; 5 Weeks, evaluation 10): 3 | edema ([2]; 5 Weeks, evaluation 10): 3 | erosion/excoriation ([2]; 5 Weeks, evaluation 10): 2 | erythema/hemorrhage ([2]; 5 Weeks, evaluation 10): 3 | Mean severity score ([2]; 6 Weeks): 9 | Total severity score ([2]; 6 Weeks, evaluation 11): 10 | dryness/scarring ([2]; 6 Weeks, evaluation 11): 3 | edema ([2]; 6 Weeks, evaluation 11): 2 | erosion/excoriation ([2]; 6 Weeks, evaluation 11): 2 | erythema/hemorrhage ([2]; 6 Weeks, evaluation 11): 3 | Total severity score ([2]; 6 Weeks, evaluation 12): 8 | dryness/scarring ([2]; 6 Weeks, evaluation 12): 2 | edema ([2]; 6 Weeks, evaluation 12): 2 | erosion/excoriation ([2]; 6 Weeks, evaluation 12): 2 | erythema/hemorrhage ([2]; 6 Weeks, evaluation 12): 2 | inhibition of IgE production (IgE [3]): 48% | skin condition observed by the naked eye [4]: remarkably improved | Mean severity score ([4]; 1 Week): 5 | Total severity score ([4]; 1 Week, evaluation 1): 4 | dryness/scarring ([4]; 1 Week, evaluation 1): 1 | edema ([4]; 1 Week, evaluation 1): 0 | erosion/excoriation ([4]; 1 Week, evaluation 1): 1 | erythema/hemorrhage ([4]; 1 Week, evaluation 1): 2 | Total severity score ([4]; 1 Week, evaluation 2): 6 | dryness/scarring ([4]; 1 Week, evaluation 2): 1 | edema ([4]; 1 Week, evaluation 2): 1 | erosion/excoriation ([4]; 1 Week, evaluation 2): 2 | erythema/hemorrhage ([4]; 1 Week, evaluation 2): 2 | Mean severity score ([4]; 2 Weeks): 8 | Total severity score ([4]; 2 Weeks, evaluation 3): 8 | dryness/scarring ([4]; 2 Weeks, evaluation 3): 2 | edema ([4]; 2 Weeks, evaluation 3): 2 | erosion/excoriation ([4]; 2 Weeks, evaluation 3): 2 | erythema/hemorrhage ([4]; 2 Weeks, evaluation 3): 2 | Total severity score ([4]; 2 Weeks, evaluation 4): 8 | dryness/scarring ([4]; 2 Weeks, evaluation 4): 2 | edema ([4]; 2 Weeks, evaluation 4): 2 | erosion/excoriation ([4]; 2 Weeks, evaluation 4): 2 | erythema/hemorrhage ([4]; 2 Weeks, evaluation 4): 2 | Mean severity score ([4]; 3 Weeks): 10.5 | Total severity score ([4]; 3 Weeks, evaluation 5): 11 | dryness/scarring ([4]; 3 Weeks, evaluation 5): 2 | edema ([4]; 3 Weeks, evaluation 5): 3 | erosion/excoriation ([4]; 3 Weeks, evaluation 5): 3 | erythema/hemorrhage ([4]; 3 Weeks, evaluation 5): 3 | Total severity score ([4]; 3 Weeks, evaluation 6): 10 | dryness/scarring ([4]; 3 Weeks, evaluation 6): 2 | edema ([4]; 3 Weeks, evaluation 6): 2 | erosion/excoriation ([4]; 3 Weeks, evaluation 6): 3 | erythema/hemorrhage ([4]; 3 Weeks, evaluation 6): 3 | Mean severity score ([4]; 4 Weeks): 9.5 | Total severity score ([4]; 4 Weeks, evaluation 7): 10 | dryness/scarring ([4]; 4 Weeks, evaluation 7): 3 | edema ([4]; 4 Weeks, evaluation 7): 2 | erosion/excoriation ([4]; 4 Weeks, evaluation 7): 3 | erythema/hemorrhage ([4]; 4 Weeks, evaluation 7): 3 | Total severity score ([4]; 4 Weeks, evaluation 8): 9 | dryness/scarring ([4]; 4 Weeks, evaluation 8): 1 | edema ([4]; 4 Weeks, evaluation 8): 2 | erosion/excoriation ([4]; 4 Weeks, evaluation 8): 3 | erythema/hemorrhage ([4]; 4 Weeks, evaluation 8): 3 | Mean severity score ([4]; 5 Weeks): 6 | Total severity score ([4]; 5 Weeks, evaluation 9): 7 | dryness/scarring ([4]; 5 Weeks, evaluation 9): 2 | edema ([4]; 5 Weeks, evaluation 9): 2 | erosion/excoriation ([4]; 5 Weeks, evaluation 9): 1 | erythema/hemorrhage ([4]; 5 Weeks, evaluation 9): 2 | Total severity score ([4]; 5 Weeks, evaluation 10): 5 | dryness/scarring ([4]; 5 Weeks, evaluation 10): 2 | edema ([4]; 5 Weeks, evaluation 10): 1 | erosion/excoriation ([4]; 5 Weeks, evaluation 10): 1 | erythema/hemorrhage ([4]; 5 Weeks, evaluation 10): 1 | Mean severity score ([4]; 6 Weeks): 2.5 | Total severity score ([4]; 6 Weeks, evaluation 11): 4 | dryness/scarring ([4]; 6 Weeks, evaluation 11): 1 | edema ([4]; 6 Weeks, evaluation 11): 1 | erosion/excoriation ([4]; 6 Weeks, evaluation 11): 1 | erythema/hemorrhage ([4]; 6 Weeks, evaluation 11): 1 | Total severity score ([4]; 6 Weeks, evaluation 12): 1 | dryness/scarring ([4]; 6 Weeks, evaluation 12): 1 | edema ([4]; 6 Weeks, evaluation 12): 0 | erosion/excoriation ([4]; 6 Weeks, evaluation 12): 0 | erythema/hemorrhage ([4]; 6 Weeks, evaluation 12): 0 | protein level of IFN-γ [5]: significantly reduced | protein level of IL-4 [5]: significantly reduced | protein level of IL-5 [5]: significantly reduced | protein level of IL-12 [5]: significantly reduced | protein level of TARC [5]: significantly reduced | protein level of TNF-α [5]: significantly reduced | dead skin cell exfoliation, epidermal hypertrophy, and hyperkeratosis [6]: significantly reduced | inhibition of IgE production (IgE [7]): 62%
